# How the values were obtained:
# VaD mouse model [1] = test: Acute piclidenoson, infusion into lateral ventricle 30-min after VaD induction; lesion size and BBB leakage by immunostaining; type: in vivo; details: acute administration 30-min post stroke, for 1-2 weeks, direct infusion into lateral ventricle, vs vehicle
# Procedure: (§1) VaD in the mouse was modified from white matter stroke model. Briefly, the mice were anesthetized with 2% isoflurane and securely mounted onto a stereotaxic apparatus. Core body temperature of the mice was maintained at 36.5 to 37.5° C. A midline incision was made down the scalp, and a craniotomy was performed with a dental drill. A Nanoliter injector (World Precision Instruments) was used to infuse 27 μg/μL of L-NIO (Sigma-Aldrich, 400-600) in sterile saline (Hospira) with Micro4 Controller injector (World Precision Instruments), at the speed of 100 nL/min. To avoid damage to motor cortex, the glass pipette (Wrld Precision Instruments, 1B100F-4) containing the L-NIO was inserted through the cortex of the frontal lobe into the underlying subcortical WM at an angle of 36°. Three injections (each of 0.3 μL of L-NIO solution) were made in the following coordinates: AP +0.80 mm, ML +2.00 mm, DV −1.56 mm; AP +0.80 mm, ML +2.83 mm, DV −1.60 mm; and AP +0.80 mm, ML +3.66 mm, DV −1.61 mm. Localized vasoconstriction leads to focal ischemia in the subcortical WM. Female mice were excluded because estrogen is potentially preventative against ischemic stroke.
# (§2) Immunostaining was performed by brain section blocking in 5% normal donkey serum for 1 hour at room temperature, incubating in primary antibody overnight at 4° C., and in secondary antibody for 1 hour at room temperature. For the performance using CD39 and Pdgfrβ antibodies, antigen retrieval using sodium citrate buffer ([…], pH 6.0), in pressure cooker for 3 min was applied before blocking. All sections were counterstained with 4′,6-diamidino-2-phenylindole (DAPI). The antibodies used in this study are listed below.
# High-resolution confocal images in z-stacks were acquired (Nikon C2). Area measurements of the infarct core, WM axonal projections stained with NF160 and MBP were quantified with Imaris (Bitplane, version 10.0.0) using surface function; all the channels were threshold with the same absolute intensity against the background. […]
# • 1. Quantification of MBP and NF160 volume for FIGS. 26I, 28M, 28N. […] For each animal, 4 slices, with 300 μm interval across the lesion core along the anterior-posterior axis, were quantified. • 2. Quantification of absolute core sizes (FIG. 16F). […] The size of core area is measured in ImageJ. […] Quantification of relative core sizes (FIG. 28I, 28L). For each animal, 4 slices, with 300 μm interval across the lesion core along the anterior-posterior axis, were quantified using ImageJ. […] Quantification of c-Fos cells (FIG. 16R, 16S, 28Q, 28R). For slices from prefrontal cortex, the number of c-Fos cells were quantified by Imaris using spots function, and normalized with the number of neurons (NeuN+) in the same region of interest (ROI). […]
# VaD mouse model [2] = test: Delayed piclidenoson (5 days after VaD induction); lesion size, axon and myelin volume by immunostaining; type: in vivo; details: delayed treatment from 5 days after VaD induction, vs vehicle; for VaD lesion size: examined 3 weeks after treatment
# Procedure: as §1, §2
# High-resolution confocal images in z-stacks were acquired (Nikon C2). Area measurements of the infarct core, WM axonal projections stained with NF160 and MBP were quantified with Imaris (Bitplane, version 10.0.0) using surface function; all the channels were threshold with the same absolute intensity against the background. The parameters for scanning were kept constant across treatment, and conditions.
# (§3) • 1. Quantification of MBP and NF160 volume for FIGS. 26I, 28M, 28N. Imaris (Bitplane, version 10.0.0) using surface function; all the channels were threshold with the same absolute intensity against the background. Because the absolute volume of cerebral white matter varies between coronal slices depending on the coordinate along anterior-posterior axis, it is difficult to directly compare the absolute volume of NF160 or MBP between groups. The volume of ipsilateral white matter is very similar to the contralateral white matter, we first normalized the volume of NF160 or MBP at the ipsilateral side to the contralateral side (no lesion), and then compare the normalized value between groups. This may be a more reasonable way to investigate how the axon reprojection and myelin regrowth is changed by piclidenoson (CF101) treatment. For each animal, 4 slices, with 300 μm interval across the lesion core along the anterior-posterior axis, were quantified. • 2. Quantification of absolute core sizes (FIG. 16F). For each animal, all the slices that cover the lesion core were stained with MBP, NF160, DAPI, and GFAP. The area of core is defined as brain region with NF160/MBP debris, high density of DAPI, and GFAP boundary. The size of core area is measured in ImageJ. The absolute core size is defined by the sum of core area×the slice thickness from all slices. • 3. Quantification of relative core sizes (FIG. 28I, 28L). For each animal, 4 slices, with 300 μm interval across the lesion core along the anterior-posterior axis, were quantified using ImageJ. The relative core sizes were normalized by the average of vehicle treated group. • 4. Quantification of c-Fos cells (FIG. 16R, 16S, 28Q, 28R). For slices from prefrontal cortex, the number of c-Fos cells were quantified by Imaris using spots function, and normalized with the number of neurons (NeuN+) in the same region of interest (ROI). […]
# VaD mouse model [3] = test: Novel Object Recognition (NOR) test after delayed piclidenoson treatment; type: in vivo; details: delayed treatment from 5 days after VaD induction, legend: one sample paired t test compared to 50%
# Procedure: VaD in the mouse was modified from white matter stroke model. Briefly, the mice were anesthetized with 2% isoflurane and securely mounted onto a stereotaxic apparatus. Core body temperature of the mice was maintained at 36.5 to 37.5° C. A midline incision was made down the scalp, and a craniotomy was performed with a dental drill. A Nanoliter injector (World Precision Instruments) was used to infuse 27 μg/μL of L-NIO (Sigma-Aldrich, 400-600) in sterile saline (Hospira) with Micro4 Controller injector (World Precision Instruments), at the speed of 100 nL/min. To avoid damage to motor cortex, the glass pipette (Wrld Precision Instruments, 1B100F-4) containing the L-NIO was inserted through the cortex of the frontal lobe into the underlying subcortical WM at an angle of 36°. Three injections (each of 0.3 μL of L-NIO solution) were made in the following coordinates: AP +0.80 mm, ML +2.00 mm, DV −1.56 mm; AP +0.80 mm, ML +2.83 mm, DV −1.60 mm; and AP +0.80 mm, ML +3.66 mm, DV −1.61 mm. Localized vasoconstriction leads to focal ischemia in the subcortical WM. […] Osmotic mini-pumps (1002, 1004) were subcutaneously implanted and connected to right lateral ventricle through brain infusion kit 3 (Alzet). The brain infusion kits were fixed onto the skull with super glue (Loctite, 45198). […] All tests were performed 3-4 weeks after VaD. […] For NOR, the testing mice were allowed to explore an open field arena (30 cm×30 cm) with 2 identical objects for 12 min on the first day. Then the one object was replaced to a novel object and the mice were allowed to explore the 2 different objects for 8 min. The exploration was recorded and the time to explore each object was analyzed by ANY-maze. The data were presented as exploration ratio of time spent exploring the novel object versus both objects. For NOR, mice were habituated in an open field arena (41.5 cm×41.5 cm×41.5 cm) for 10 min. […] The exploration was recorded and the time to explore each object was analyzed by ANY-maze, and/or manually hand-scored. […]
# VaD mouse model [4] = test: c-Fos quantification in PFC (AC) and HPC (CA2/3) after delayed piclidenoson treatment; type: in vivo; details: VaD animals
# Procedure: as §1, §2
# as §3, with “(ROI). For slices from hippocampus, the number of c-Fos cells were quantified by Imaris and normalized with the volume of ROI because it is difficult to normalize with the number of neurons due to compact pyramidal cell layer. The same quality threshold was used for all samples. • 5. Quantification of CD39 in human IHC (FIG. 28D, 28E).” for “(ROI).”
# VaD mouse model [5] = test: Grid walking task after delayed piclidenoson treatment; type: in vivo; details: three weeks post piclidenoson treatment
# Procedure: as §1, with “stroke. Osmotic mini-pumps (1002, 1004) were subcutaneously implanted and connected to right lateral ventricle through brain infusion kit 3 (Alzet). The brain infusion kits were fixed onto the skull with super glue (Loctite, 45198). For 4-week treatment, 1004 mini-pumps were used to delivery 400 µM of piclidenoson (in 1% DMSO in saline) at the speed of 0.11 μL/h; For 2-week treatment, 1002 mini-pumps were used to deliver 200 μM of piclidenoson at the speed of 0.23 μL/h. For Grid walking test, the mice were tested 1-day pre-, 7-day, 30-day, and 60-day post-VaD in progressiveness investigation, and 1-day pre-, 4-day and 21-day post-VaD in piclidenoson treatment study. Behavior tests were scored by observers who were masked to the treatment group of the animals.” for “stroke.”
# VaD mouse model [6] = test: Satb2 and Cux1 immunostaining in cortical Layer VI after delayed piclidenoson treatment; type: in vivo; details: motor somatosensory cortex
# Procedure: as §1, §2
# as §3, with “(ROI). For slices from hippocampus, the number of c-Fos cells were quantified by Imaris and normalized with the volume of ROI because it is difficult to normalize with the number of neurons due to compact pyramidal cell layer. The same quality threshold was used for all samples. • 5. Quantification of CD39 in human IHC (FIG. 28D, 28E).” for “(ROI).”
# A3AR = details: cited from earlier work
# [7] = recent phase III clinical trials for psoriasis; cited from earlier work
smiles,measurement,setting,value
"CNC(=O)[C@H]1O[C@@H](n2cnc3c(NCc4cccc(I)c4)ncnc32)[C@H](O)[C@@H]1O [piclidenoson, 1-deoxy-1-[6-[(iodophenyl)methyl]amino]9H-purine-9-yl]-N-methyl-(-D-ribofuranuronamide]",VaD lesion size,VaD mouse model [1],may reduce lesion size
same,blood brain barrier (BBB) leakage (immunoreactivity of mouse IgG),VaD mouse model [1],significantly reduced blood brain barrier (BBB) leakage
same,blood brain barrier (BBB) leakage (immunoreactivity of mouse IgG),VaD mouse model [1]; listed as CF101,reduced blood brain barrier (BBB) leakage
same,blood brain barrier (BBB) leakage (immunoreactivity of mouse IgG),VaD mouse model [1]; listed as Pic,"Veh vs Pic, *p<0.05"
same,VaD lesion size,VaD mouse model [2],significant reduction of lesion size
same,VaD lesion size,VaD mouse model [2]; listed as CF101,significant reduction of lesion size
same,VaD lesion size,VaD mouse model [2]; listed as Pic,"Veh vs Pic, *p<0.05"
same,axon volume / axonal projections (NF160 immunostaining),VaD mouse model [2],not changed
same,myelin volume / markers of myelination (MBP immunostaining) in affected WM,VaD mouse model [2],significantly increased
same,axon volume / axonal projections (NF160 immunostaining),VaD mouse model [2]; listed as CF101,not changed
same,myelin volume / markers of myelination (MBP immunostaining) in affected WM,VaD mouse model [2]; listed as CF101,significantly increased
same,axon volume / axonal projections (NF160 immunostaining),VaD mouse model [2]; listed as Pic,"Veh vs Pic, n.s.=not significant"
same,myelin volume / markers of myelination (MBP immunostaining) in affected WM,VaD mouse model [2]; listed as Pic,"Veh vs Pic, *p<0.05"
same,"NOR memory test, memory deficits (novel object preference)",VaD mouse model [3],significantly reduced memory deficits
same,"NOR memory test, memory deficits (novel object preference)",VaD mouse model [3]; listed as CF101,significantly reduced memory deficits
same,"NOR memory test, memory deficits (novel object preference)",VaD mouse model [3]; listed as Pic,"Con_Veh, Con_Pic, and VaD_Pic groups, *p<0.05"
same,"c-Fos expression in HPC CA2/3, c-Fos+ cell numbers per mm^3",VaD mouse model [4],restored c-Fos expression
same,"c-Fos expression in PFC anterior cingulate (AC), c-Fos/NeuN (%)",VaD mouse model [4],restored c-Fos expression
same,"c-Fos expression in HPC CA2/3, c-Fos+ cell numbers per mm^3",VaD mouse model [4]; listed as CF101,restored c-Fos expression
same,"c-Fos expression in PFC anterior cingulate (AC), c-Fos/NeuN (%)",VaD mouse model [4]; listed as CF101,restored c-Fos expression
same,"c-Fos expression in HPC CA2/3, c-Fos+ cell numbers per mm^3",VaD mouse model [4]; listed as Pic,"Con_Veh vs VaD_Pic, n.s.=not significant"
same,"c-Fos expression in PFC anterior cingulate (AC), c-Fos/NeuN (%)",VaD mouse model [4]; listed as Pic,"Con_Veh vs VaD_Pic, n.s.=not significant"
same,"grid walking task, motor deficit",VaD mouse model [5],successfully rescued the motor deficit
same,"grid walking task, motor deficit",VaD mouse model [5]; listed as CF101,successfully rescued the motor deficit
same,"grid walking task, motor deficit",VaD mouse model [5]; listed as Pic,"VaD_Veh vs VaD_Pic, ##p<0.01"
same,"Cux1 expression, Cux1+/NeuN (%) in Layer VI above infarct lesion",VaD mouse model [6],significantly ameliorated
same,"Satb2 expression, Satb2+/NeuN (%) in Layer VI near infarct lesion",VaD mouse model [6],significantly ameliorated
same,"Satb2 expression, Satb2+/NeuN (%) in Layer VI near infarct lesion",VaD mouse model [6]; listed as CD101,"VaD_Veh vs VaD_CD101, *p<0.05"
same,"Cux1 expression, Cux1+/NeuN (%) in Layer VI above infarct lesion",VaD mouse model [6]; listed as CF101,significantly ameliorated
same,"Satb2 expression, Satb2+/NeuN (%) in Layer VI near infarct lesion",VaD mouse model [6]; listed as CF101,significantly ameliorated
same,"Cux1 expression, Cux1+/NeuN (%) in Layer VI above infarct lesion",VaD mouse model [6]; listed as Pic,"Con_Veh vs VaD_Pic, n.s.=not significant"
same,"Satb2 expression, Satb2+/NeuN (%) in Layer VI near infarct lesion",VaD mouse model [6]; listed as Pic,"Con_Veh vs VaD_Pic, n.s.=not significant"
same,potency in A3AR action relative to A1AR and A2bAR,A3AR; A3AR vs A1AR and A2bAR,50 fold
same,non-specific effects on other adenosine receptors,A3AR,minimal non-specific effects on other adenosine receptors
same,safety in humans,[7],safely used in humans
